In US20210107871A1 (priority 2017, published 2021):

Tested on: pseudotype VSV (expressing GFP) having the surface glycoprotein of Ebola virus (zaire sp.)
Assay: microbe, parasite or virus in culture
Format: cell-based
Conditions: for activity at 0.005 µM / activity at 0.312 µM / activity at 5 µM / activity at 0.078 µM / activity at 1.25 µM / activity at 0.625 µM / activity at 2.5 µM / activity at 0.02 µM: Vesicular stomatitis virus, Vero C1008, 18 h, read-out: Viral Infection rate (%); for activity at 0.005 µM: Compound Conc. 0.005 μM; for activity at 0.312 µM: Compound Conc. 0.312 μM; for activity at 0.078 µM: Compound Conc. 0.078 μM; for activity at 1.25 µM: Compound Conc. 1.25 μM; for activity at 0.625 µM: Compound Conc. 0.625 μM; for activity at 2.5 µM: Compound Conc. 2.5 μM; for activity at 0.02 µM: Compound Conc. 0.020 μM

Structure (SMILES) | activity at 0.005 µM [%] | activity at 0.312 µM [%] | activity at 5 µM (Compound Conc. 5 μM) [%] | activity at 0.078 µM [%] | activity at 1.25 µM [%] | activity at 0.625 µM [%] | activity at 2.5 µM [%] | activity at 0.02 µM [%] | Viral Infection rate (%) (Compound Conc. 5 μM)
CCN(CC)CCCN(c1ccc(OC)cc1-c1ccc(F)cc1)S(=O)(=O)c1ccccc1 [4-68, N-[3-(diethylamino)propyl]-N-[2-(4-fluorophenyl)-4-methoxy-phenyl)benzensulfonamide] | 99.3 | 52.8 | 0.25 |  |  |  |  |  | 
CCN1CCC(CN(c2ccc(OC)cc2-c2ccccc2F)S(=O)(=O)c2ccccc2)CC1 [4-57, N-[2-(2-fluorophenyl)-4-methoxy-phenyl)-N-(1-ethyl-4-piperidylmethyl)benzensulfonamide] | 101 | 58.2 | 0.83 | 93.3 | 1 |  |  |  | 
CCN(CC)CCCN(c1ccc(OC)cc1[N+](=O)[O-])S(=O)(=O)c1ccc(OC)cc1 [4-11, 4-methoxy-N-[3-(diethylamino)propyl]-N-(4-methoxy-2-nitro-phenyl)benzensulfonamide] |  | 88.3 | 2.09 |  |  |  |  |  | 
CCN(CC)CCCN(c1ccccc1-c1ccccc1)S(=O)(=O)c1cccc2ccccc12 [4-13, N-[3-(diethylamino)propyl]-N-(2-phenyl-phenyl)naphthalene-1-sulfonamide] |  |  |  |  |  | 90.2 |  |  | 
CCN(CC)CCCN(c1ccc(OC)cc1[N+](=O)[O-])S(=O)(=O)c1cccc(F)c1 [4-4, 3-fluoro-N-[3-(diethylamino)propyl]-N-(4-methoxy-2-nitro-phenyl)benzensulfonamide] |  | 84.4 | 2.05 |  | 29.7 | 71.3 | 8.13 |  | 
COc1ccc(N(CCN2CCOCC2)S(=O)(=O)c2ccccc2)c(-c2ccccc2)c1 [4-34, N-(4-methoxy-2-phenyl-phenyl)-N-(2-morpholinoethyl)benzensulfonamide] |  |  | 4.56 |  | 76.9 |  | 40.2 |  | 
COc1ccc(N(CC2CCCN(C(=O)OC(C)(C)C)C2)S(=O)(=O)c2ccccc2)c(-c2ccccc2)c1 (stereo not shown) [4-22, t-butyl-3-[[N-(benzenesulfonyl)-4-methoxy-2-phenyl-anilino]methyl]piperidine-1-carboxylate] |  |  | ~8.7 |  |  |  |  |  | 
CCN(CC)CCCN(c1ccc(OC)cc1[N+](=O)[O-])S(=O)(=O)c1cccc(C)c1 [4-6, 3-methyl-N-[3-(diethylamino)propyl]-N-(4-methoxy-2-nitro-phenyl)benzenesulfonamide] |  | 91.2 | 3.8 |  | 57.1 | 91.1 | 20.1 |  | 
CCN(CC)CCCN(c1ccc(OC)cc1[N+](=O)[O-])S(=O)(=O)c1ccc(F)cc1 [4-3, 4-fluoro-N-[3-(diethylamino)propyl]-N-(4-methoxy-2-nitro-phenyl)benzensulfonamide] |  | 105 | 3.8 |  | 52.8 | 88.1 | 18.4 |  | 
COc1ccc(N(CCCN)S(=O)(=O)c2ccccc2)c(-c2ccccc2)c1 [4-32, N-(3-aminopropyl)-N-(4-methoxy-2-phenyl-phenyl)benzensulfonamide] |  | 86 | 0.47 |  | 57.8 | 82.4 | 15.8 |  | 
CCOc1ccc(N(CC2CCN(CC)CC2)S(=O)(=O)c2ccccc2)c(-c2ccccc2)c1 [4-39] | 98.4 |  |  |  | 116 |  |  | 103 | 
CCN1CCC(CN(c2ccc(OC)cc2-c2cccc(F)c2)S(=O)(=O)c2ccccc2)CC1 [4-54, N-[2-(3-fluorophenyl)-4-methoxy-phenyl)-N-(1-ethyl-4-piperidylmethyl)benzensulfonamide] |  | 28.6 | 0 | 74.5 | 0.1 |  |  | 90 | 
COc1ccc(N(CCN(C)C)S(=O)(=O)c2ccccc2)c(-c2ccccc2)c1 [4-33, N-[3-(dimethylamimo)ethyl]-N-(4-methoxy-2-phenyl-phenyl)benzensulfonamide] |  | 81.1 | 0.1 |  | 17.1 | 71.3 | 1.51 |  | 
CCN(CC)CCCN(c1ccc(OC)cc1[N+](=O)[O-])S(=O)(=O)c1ccccc1 [4-1, N-[3-(diethylamino)propyl]-N-(4-methoxy-2-nitro-phenyl)benzensulfonamide] |  | 87.5 | 1.83 |  | ~12 | ~38 | 2.83 |  | 
CCN(CC)CCCN(c1ccccc1-c1ccccc1)S(=O)(=O)c1ccc(OC)cc1 [4-14, 4-methoxy-N-[3-(diethylamino)propyl]-N-(2-phenyl-phenyl)benzensulfonamide] |  | 77.4 | 0.83 |  | 7.82 | 42.2 |  |  | 
COc1ccc(N(CC2CCN(C(=O)OC(C)(C)C)CC2)S(=O)(=O)c2ccccc2)c(-c2ccccc2)c1 [4-18, t-butyl-4-[[N-(benzenesulfonyl)-4-methoxy-2-phenyl-anilino]methyl]piperidine-1-carboxylate] |  |  | 23.3 |  |  |  |  |  | 
COc1ccc(N(CC2CCCNC2)S(=O)(=O)c2ccccc2)c(-c2ccccc2)c1 (stereo not shown) [4-23, N-(4-methoxy-2-phenyl-phenyl)-N-(3-piperidylmethyl)benzensulfonamide] |  | 100 | 1.79 |  |  |  | ~24.4 |  | 
CCN1CCC(CN(c2ccc(OC)cc2-c2ccc(F)cc2)S(=O)(=O)c2ccccc2)CC1 [4-51, N-[2-(4-fluorophenyl)-4-methoxy-phenyl)-N-(1-ethyl-4-piperidylmethyl)benzensulfonamide] | 92.2 | 11.9 | 0 | 45 | 0.51 |  |  | 84.5 | 
CCN1CCC(CN(c2ccc(OC)cc2-c2ccccc2)S(=O)(=O)c2cccc(F)c2)CC1 [4-63, 3-fluoro-N-(4-methoxy-2-phenyl-phenyl)-N-(1-ethyl-4-piperidylmethyl)benzensulfonamide] | 96.7 | 34.3 | 0 | 78.2 | 0.81 |  |  | 96.2 | 
CCN(CC)CCCN(c1ccc(OC)cc1[N+](=O)[O-])S(=O)(=O)c1ccccc1F [4-5, 2-fluoro-N-[3-(diethylamino)propyl]-N-(4-methoxy-2-nitro-phenyl)benzensulfonamide] |  |  | 3.18 |  | 54.9 | 94.2 |  |  | 
COc1ccc(N(CCCNC(=O)OC(C)(C)C)S(=O)(=O)c2ccccc2)c(-c2ccccc2)c1 [4-31, t-butyl-N-[3-[N-(benzenesulfonyl)-4-methoxy-2-phenyl-anilino]propyl]carbamate] |  | ~100 | 8.51 |  |  |  |  |  | 
CCN1CCC(CN(c2ccc(C(C)(C)C)cc2-c2ccccc2)S(=O)(=O)c2ccccc2)CC1 [4-48, N-(4-t-butyl-2-phenyl-phenyl)-N-(1-ethyl-4-piperidylmethyl)benzensulfonamide] | 97.1 |  | 47.6 | 96.3 |  |  |  | 104 | 
CCN1CCC(CN(c2ccc(C(C)C)cc2-c2ccccc2)S(=O)(=O)c2ccccc2)CC1 [4-45, N-(4-isopropyl-2-phenyl-phenyl)-N-(1-ethyl-4-piperidylmethyl)benzensulfonamide] | 90.8 | 103 | 0.23 | 104 | 69.5 |  |  | 101 | 
CCN1CCCC(CN(c2ccc(OC)cc2-c2ccccc2)S(=O)(=O)c2ccccc2)C1 (stereo not shown) [4-25] |  | 58.1 | 0.14 |  | 2.51 | 24.3 | 0.14 |  | 
CCN(CC)CCCN(c1ccc(OC)cc1[N+](=O)[O-])S(=O)(=O)c1ccccc1C [4-7, 2-methyl-N-[3-(diethylamino)propyl]-N-(4-methoxy-2-nitro-phenyl)benzensulfonamide] |  | 87.2 | 5.08 |  | 37 | 68.4 | 12.9 |  | 
COc1ccc(N(CC2CCCN(C)C2)S(=O)(=O)c2ccccc2)c(-c2ccccc2)c1 (stereo not shown) [4-42] | 95.6 | 93 | ~0 | 102 |  | 28.4 | 0.25 | 101 | 0.00
COc1ccc(N(CCN2CCCCC2)S(=O)(=O)c2ccccc2)c(-c2ccccc2)c1 [4-35, N-(4-methoxy-2-phenyl-phenyl)-N-[2-(1-piperidyl)ethyl]benzensulfonamide] |  | 89.5 |  |  | 1.82 | 82.3 | 30.3 |  | 
COc1ccc(N(CC2CCNCC2)S(=O)(=O)c2ccccc2)c(-c2ccccc2)c1 [4-19, N-(4-methoxy-2-phenyl-phenyl)-N-(4-piperidylmethyl)benzensulfonamide] |  | 83.3 | 2.2 |  | 52.3 | 78.5 |  |  | 
CCN(CC)CCCN(c1ccc(OC)cc1[N+](=O)[O-])S(=O)(=O)c1cccc2ccccc12 [4-9, N-[3-(diethylamino)propyl]-N-(4-methoxy-2-nitro-phenyl)naphthalene-1-sulfonamide] |  | 82.5 | 2.32 |  | 20.8 | 58.6 |  |  | 
